Like-named read-outs stand apart in the source and are kept apart here.
How the values were obtained:
Oral absorption in dogs = type: in vivo
Protocol: (§1) The highest plasma concentrations generally occurred in 1-2 hours. […] The highest level of inhibition was ˜35% for 2C19 at a 30 μM concentration. […] Lastly, VGX-1027 is stable in human liver S9 fractions (with phase 1 and 2 cofactors) with t1/2>90 minutes, which indicates a low likelihood of metabolism in the liver.

Metabolite monitoring = type: in vitro ADME; details: isoxazole ring disruption, single oxidation, single glucuronidation; any species
Protocol: as §1

[1] = Placebo-controlled ascending multiple-dose study in healthy subjects; type: in vivo, human; details: for Tmax / Cmax / AUC(0-t) / AUC: human, in vivo, oral; for Cmax / AUC(0-t) / AUC: Geo Mean; for AUC(0-t): read-out: AUC (0-24); for AUC: read-out: AUC (AUC to 12 hours)
Protocol: A placebo-controlled, ascending multiple-dose study was also performed to evaluate the safety and pharmacokinetics of VGX-1027 in healthy human subjects. The primary outcome to be measure was the safety as determined by vital signs, physical examinations, ECGs, clinical laboratory evaluations, and adverse event reporting. The secondary outcome measured was the pharmacokinetics on day 1 and at steady state-on day 5. Study was performed upon 4 groups of subjects: group 1: 40 mg of VGX-1027 QD; group 2: 100 mg of VGX-1027 QD; group 3: 200 mg of VGX-1027 QD; group 4: 200 mg of VGX-1027 BID. The pharmacokinetics is provided in Table 7, below, along with data from the single dose study: […]

[2] = tested on: Peritoneal macrophages (PM); assay: In vitro cytokine synthesis by peritoneal macrophages; type: cell-based, mice
Source text: (§2) Peritoneal macrophages (PM) and splenic mononuclear cells (SMNC) were isolated from normal mice, cultured in nutrient medium and stimulated with LPS and/or ConA in the absence or presence of VGX-1027. […] VGX-1027 had no effect on MIF expression in either cell type, on proliferation of SMNC, and on IL-10 and Interferon (IFN) γ production by SMNC.

[3] = tested on: splenic mononuclear cells (SMNC); assay: In vitro proliferation and cytokine synthesis of splenic mononuclear cells; type: cell-based, mice
Source text: as §2

[4] = tested on: splenic mononuclear cells (SMNC); assay: Ex vivo proliferation and cytokine synthesis of SMNC from treated mice; type: cell-based
Protocol: These experiments were carried out to explore if intraperitoneal (i.p.) or oral administration (p.o.) in mice with VGX-1027 could influence the proliferative response of SMNC and the production of IL-1β, IL-10, TNF-α, IFN-γ and MIF from isolated PM and SMNC. PM and SMNC isolated from mice treated in vivo with VGX-1027 for 7 consecutive days intraperitoneally (0.5 mg/mouse), or orally (2.5 mg/mouse), or isolated from control animals that received VGX-1027 vehicle (Na2HPO4/H2O), or were without any treatment. 24 h after the last VGX-1027 treatment, PM and SMNC were collected for further in vitro stimulation and analysis.

[5] = tested on: oxazolone-induced hypersensitivity; assay: Oxazolone-induced dermatitis; type: in vivo, mice
[6] = tested on: undifferentiated CD4 T cells; assay: Proliferation of undifferentiated CD4 T cells; type: cell-based
Protocol: (A) Cell viability was measured via the MTT assay after 48 hours of treatment. (B) TNF-α levels were measured 48 hours post LPS (5 μg/ml) stimulation. (C) CD4 T cells were stimulated with either ConA (10 μg/ml) or anti-CD3/CD28 beads (10 μg/ml), and proliferation was measured via 3H-thymidine incorporation.

spontaneous diabetes = assay: Spontaneous diabetes in NOD mice; type: in vivo; details: i.p. 20 mg/kg 6 times a week, week 12 to 25
Protocol: (A) Euglycaemic female 12 week old NOD mice were treated intraperitoneally with either 20 mg/kg bw VGX-1027 or its vehicle six times a week from the 12th until the 25th week of age. An additional control group of mice was left untreated. Each group consisted of 16 mice. The data are representative of two independent experiments that were merged because of interstudies variability lower than 10%. Statistical analysis was performed by Logrank (Mantel-Cox). (B) Plasma glucose levels in control CBA/H mice receiving STZ (40 mg/kg/day, for 5 consecutive days) in conjunction with 12 daily intreperitoneum injections of vehicle (STZ), or in mice treated with STZ and VGX-1027 given as a continuous 12-day treatment. 100 mg/kg bw of VGX-1027, administered orally from day −1 to day +10. Results from a representative experiment are presented as mean±SD for seven to eight mice per group. *p<0.05 refers to treatment with MLD-STZ.

[7] = 100 mg, Multiple Dose (Day 1) 100 mg
[8] = 100 mg, Multiple Dose (Day 5) 100 mg
[9] = 200 mg, 200 mg BID, first dose, Day 1
[10] = 200 mg, 200 mg BID, first dose, Day 5
[11] = 200 mg, Multiple Dose (Day 1) 200 mg
[12] = 200 mg, Multiple Dose (Day 5) 200 mg
[13] = elicitation phase: one hour after second oxazolone exposure
[14] = treated during or before the sensitization phase

Question: With `O=C(O)CC1CC(c2ccccc2)=NO1` (centres unmarked) [VGX-1027, 3-phenyl-4,5-dihydro-5-isoxazoleacetic acid] as the compound, how does the oral absorption (Oral absorption in dogs) read?
Answer: Its oral absorption is “rapidly absorbed”.

Question: What about the “time of highest plasma concentrations” value (Oral absorption in dogs) of the same compound?
Answer: Its value is 1 to 2 h.

Question: And the “metabolite peaks for the 3 monitored masses” value (Metabolite monitoring)?
Answer: The value was “no metabolite peaks were observed”.

Question: What about the urine drug levels ([1]; CAT002 urine PK analysis) of the same compound?
Answer: Its urine drug levels is “high drug levels in urine”.

Question: And the Tmax [1, 7]?
Answer: Its Tmax is 1 h.

Question: What about the Cmax [1, 7] of the same compound?
Answer: Its Cmax is 7570 ng/mL.

Question: And the AUC(0-t) [1, 7]?
Answer: Its AUC(0-t) is 31300 ng·h/mL.

Question: And the Tmax [1, 8]?
Answer: Its Tmax is 1.5 h.

Question: And the Cmax [1, 8]?
Answer: The Cmax was 6760 ng/mL.

Question: What about the AUC(0-t) [1, 8] of the same compound?
Answer: The AUC(0-t) was 23200 ng·h/mL.

Question: What about the Tmax [1, 9] of the same compound?
Answer: Its Tmax is 1 h.

Question: And the Cmax [1, 9]?
Answer: Its Cmax is 13100 ng/mL.

Question: And the AUC [1, 9]?
Answer: Its AUC is 58200 ng·h/mL.

Question: What about the Tmax [1, 10] of the same compound?
Answer: Its Tmax is 1.5 h.

Question: And the Cmax [1, 10]?
Answer: The Cmax was 16800 ng/mL.

Question: What about the AUC [1, 10] of the same compound?
Answer: The AUC was 70400 ng·h/mL.

Question: What about the Tmax [1, 11] of the same compound?
Answer: The Tmax was 1.3 h.

Question: What about the Cmax [1, 11] of the same compound?
Answer: The Cmax was 15700 ng/mL.

Question: What about the AUC(0-t) [1, 11] of the same compound?
Answer: The AUC(0-t) was 78100 ng·h/mL.

Question: And the Tmax [1, 12]?
Answer: The Tmax was 2 h.

Question: What about the Cmax [1, 12] of the same compound?
Answer: The Cmax was 14100 ng/mL.

Question: What about the AUC(0-t) [1, 12] of the same compound?
Answer: The AUC(0-t) was 65700 ng·h/mL.

Question: And the dosing toxicities ([1]; up to 200 mg bid for 5 days)?
Answer: Its dosing toxicities is “No dosing toxicities were observed”.

Question: What about the “IL-1 β production” value [2] of the same compound?
Answer: The value was “inhibited”.

Question: And the IL-10 production [2]?
Answer: Its IL-10 production is “inhibited”.

Question: And the MIF expression [2]?
Answer: Its MIF expression is “no effect”.

Question: And the TNF-α production ([2]; LPS and/or ConA stimulated)?
Answer: Its TNF-α production is “markedly inhibited”.

Question: What about the IL-10 production [3] of the same compound?
Answer: Its IL-10 production is “no effect”.

Question: And the “Interferon (IFN) γ production” value [3]?
Answer: The value was “no effect”.

Question: And the MIF expression [3]?
Answer: The MIF expression was “no effect”.

Question: What about the proliferation [3] of the same compound?
Answer: The proliferation was “no effect”.

Question: What about the TNF-α production ([3]; LPS and/or ConA stimulated) of the same compound?
Answer: Its TNF-α production is “markedly inhibited”.

Question: And the IFN-γ production [4]?
Answer: The IFN-γ production was “normal capacity”.

Question: What about the “IL-1 β production” value [4] of the same compound?
Answer: Its value is “normal capacity”.

Question: What about the IL-10 production [4] of the same compound?
Answer: The IL-10 production was “normal capacity”.

Question: What about the MIF expression [4] of the same compound?
Answer: The MIF expression was “normal expression pattern”.

Question: And the TNF-α production [4]?
Answer: Its TNF-α production is “normal capacity”.

Question: And the capacity to proliferate ([4]; mice treated 7 days)?
Answer: The capacity to proliferate was “normal capacity”.

Question: And the ear thickness [5, 13]?
Answer: Its ear thickness is “significant decrease”.

Question: And the ear weight [5, 13]?
Answer: Its ear weight is “not in weight”.

Question: What about the ear thickness [5, 14] of the same compound?
Answer: The ear thickness was “significantly suppressed”.

Question: What about the ear weight [5, 14] of the same compound?
Answer: Its ear weight is “significantly suppressed”.

Question: And the proliferation ([6]; CD3/CD28 stimulation)?
Answer: The proliferation was “affected neither”.

Question: What about the INF-γ production ([6]; ConA stimulation) of the same compound?
Answer: Its INF-γ production is “affected neither”.

Question: And the proliferation ([6]; ConA stimulation)?
Answer: Its proliferation is “affected neither”.

Question: What about the “mice developing TID” value (spontaneous diabetes; by 25 weeks) of the same compound?
Answer: Its value is 31.3%.

Question: And the “tolerability of prolonged treatment” value (spontaneous diabetes)?
Answer: Its value is “well tolerated”.

— patent US20150064221A1, “COMPOUNDS HAVING IMMUNOMUDULATOR ACTIVITY” (priority 2012, published 2015)
